Experimental data from patent publication US20060128997A1, “New method for the preparation of 1,5-bis(4-hydroxy-3-metoxy-phenyl)-penta-1,4-dien-3-one and derivatives with antitumoral properties” (priority 2003, published 2006).
“Also recorded” adds a separate entry of the source.

Key:
786-0 (Renal tumor) = assay: Antiproliferate test in tumoral human cells, sulforrodamina B essay; type: cell-based
Protocol: (§1) Methodology utilized to perform the antitumoral tests:
(§2) Report of the Antiproliferate Test in Tumoral Human Cells with the Sulforrodamina B Essay
(§3) The cell lines used in the essays, described in the table 1, were maintained in recipients of 25 cm^2 (Nunc®), with 5 mL of culture medium RPMI 1640 supplemented with 5% bovine foetal serum (RPMI/SFB), at 37° C. in atmosphere of 5% of CO2 and 100% of humidity.
(§4) […] of cells in medium RPMI/SFB with 50 μg/mL of Gentamicin were inoculated in its respectives densities of inoculation, in plates of 96 compartments and incubated for 24 hours at 37° C. in atmosphere of 5% of CO2 and 100% of humidity.
(§5) After 24 hours, […] of the test substance were added in the following concentrations of 250; 25; 2.5; 0.2 μg/mL diluted in RPMI/SFB/gentamicin. In this moment the reading of one plate was performed for the determination of the T0 (cell control in the moment of the adding the samples). The other plates were incubated for 48 hours After this period the experiment was paused by adding the trichlorine acetic acid to further determine the protein content by means of […] essay with the sulforrodamina B.
(§6) The stocked solutions were developed by diluting the samples in dimethyl sulfoxide (DMSO) in the concentration of 0.1 g/mL. That solution was diluted by 400 times in RPMI/SFB/gentamicina to be added in the plates of 96 compartments being obtained so the a ideal concentration of DMSO (Skehan e cols. 1990).
(§7) At the end of the test, the plates of 96 compartments were centrifuged for 3 minutes at 2000 rpm, and they were fixed with 50 μL of a solution at 50% of trichloroacetic acid (TCA) at 4° C. To complete the cellular fixation, the plates were incubated for 1 hour at 4° C.
(§8) The plates were submitted to four consecutive washes with distillated water to remore the residues of TCA, medium, SFB and secondary metabolic and maintained at room temperature until the complete drying.
(§9) A coloration was performed by the adding of 50 μL SRB at 0.4% (weight/volume) diluted in acetic acid at 1%, and maintained at 4° C. for 30 minutes. Further, they were washed by 4 consecutive times with a solution of acetic acid 1%. The residue of the washing of the solution was removed and the plates were dried again at room temperature. The colorant linked to the cellular protein was diluted with a solution of Trizma Base (Sigma®) in concentration of […] and pH 10.5 for 5 minutes in ultrasonic bath. The spectrophotometric of absorbancy reading was performed in 560 nm in a micro plates lector (Labsystems Labsystems Multiskan® MCC/340).
(§10) The absorbancy averages were assessed having discounted its respective nulls and by means of the formula shown below was determined the growth inhibition (IC) of each tested sample.
(§11) If T≧T0 but <C, the drug was cytostatic and the formula used is 100×[(T−To)/(C−T0)]
(§12) If T<T0 the drug was cytotoxic and the formula used is […]
(§13) Considering that T is the absorbency average of the treated cell C is the cell control and T0 is the cell control in the addition day.
(§14) The obtained result was subtracted from 100% so obtaining the percentage of growth inhibition. The samples were considered actives since they presented growth inhibition dependant dose higher than 50% and selective lineage, that is, the preferential activity for only one type of tumoral cell or with cytostatic and/or killer cell effect well distinguished among the cell lines.
(§15) All the assays were performed in triplicates so that the presented results make reference to a representative experiment. The standard deflection from the average was always lower than 5%.

K-562 (Leukemia) = assay: as above; type: cell-based; conditions: K562
Protocol: as §1, §2, §3, §4, §5, §6, §7, §8, §9, §10, §11, §12, §13, §14, §15

[1] = test system: NCIADR (Mamma tumor which expresses the phenotype resistance against multiple drugs); assay: as above; type: cell-based
Protocol: as §1, §2, §3, §4, §5, §6, §7, §8, §9, §10, §11, §12, §13, §14, §15

HT29 (Colon tumor) = assay: as above; type: cell-based; conditions: HT-29
Protocol: as §1, §2, §3, §4
After 24 hours, […] of the test substance were added in the following concentrations of 250; 25; 2.5; 0.2 μg/mL diluted in RPMI/SFB/gentamicin. In this moment the reading of one plate was performed for the determination of the T0 (cell control in the moment of the adding the samples). […]
A coloration was performed by the adding of 50 μL SRB at 0.4% (weight/volume) diluted in acetic acid at 1%, and maintained at 4° C. for 30 minutes. […] The spectrophotometric of absorbancy reading was performed in 560 nm in a micro plates lector (Labsystems Labsystems Multiskan® MCC/340).
The absorbancy averages were assessed having discounted its respective nulls and by means of the formula shown below was determined the growth inhibition (IC) of each tested sample. […]

[2] = test system: all cell lines (nine different types of human cancer); assay: Antiproliferate test, sulforrodamina B essay, whole panel of cell lines; type: cell-based; conditions: for concentration from which cytostatic activity (growth inhibition) is presented: all cell lines
Protocol: as §1, §2, §3, §4, §5, §6, §7, §8, §9, §10, §11, §12, §13, §14, §15

OVCAR-3 (Ovary tumor) = assay: Antiproliferate test in tumoral human cells, sulforrodamina B essay; type: cell-based
Protocol: as §1, §2, §3, §4, §5, §6, §7, §8, §9, §10, §11, §12, §13, §14, §15

PC-3 (Prostate tumor) = assay: as above; type: cell-based; conditions: PC-03
Protocol: as §1, §2, §3, §4, §5, §6, §7, §8, §9, §10, §11, §12, §13, §14, §15

[3] = cited from earlier work
HT-1080 = conditions: literature values (Banskota, Kimoto); unit not given; cited from earlier work
Colon L5-26 = conditions: literature values (Banskota, Kimoto); unit not given; cited from earlier work

Q: Which results are given for COc1cc(C=CC(=O)C=Cc2ccc(OCC=C(C)C)c(OC)c2)ccc1OCC=C(C)C [HB6, 1,5-Bis[3-metoxy-4-(3-methyl-but-2-eniloxy)phenyl]-penta-1,4-dien-3-one]?
A: concentration with cytotoxic activity (cellular death) (786-0 (Renal tumor)): 250 µg/mL; concentration with cytotoxic activity (cellular death) (K-562 (Leukemia)): 250 µg/mL; concentration with cytotoxic activity (cellular death) ([1]; NCIADR): 250 µg/mL; concentration with cytotoxic activity (cellular death) (HT29 (Colon tumor)): 250 µg/mL; concentration from which cytostatic activity (growth inhibition) is presented [2]: ≥ 25 µg/mL; selectivity for the studied cell lines, in words ([2]; panel of cell lines): cellular selectivity for HT-29 and 786-0 cell lines

Q: Which “concentration with cytotoxic activity (cellular death)” value (OVCAR-3 (Ovary tumor)) does the source give for COc1ccc(C=CC(=O)C=Cc2ccc(OC)c(OC)c2)cc1OC [HBM1, 1,5-Bis(3,4-dimetoxyphenyl)-penta-1,4-dien-3-one] here?
A: 250 µg/mL

Q: And the “concentration with cytotoxic activity (cellular death)” value (PC-3 (Prostate tumor))?
A: 250 µg/mL

Q: What about the “concentration from which cytostatic activity (growth inhibition) is presented” value [2] of the same molecule?
A: ≥ 0.25 µg/mL

Q: For COc1cccc2c1C(=O)c1c(O)c3c(c(O)c1C2=O)C[C@@](O)(C(=O)CO)C[C@@H]3O[C@H]1C[C@H](N)[C@H](O)[C@H](C)O1 [Doxorubicin, reference compound], which “growth inhibition of the Mama NCI-ADR cell line, in words” value ([1]; NCI-ADR, resistance against multiple drugs) is on record?
A: does not inhibit the growth; also recorded: did not inhibit the growth

Q: And the “toxicity, in words” value ([3]; in vivo)?
A: extremely toxic

Q: What about the LD50 ([3]; species and route not given) of the same molecule?
A: 20 mg/kg

Q: Which results are given for CC(C)=CCc1cc(C=CC(=O)O)cc(CC=C(C)C)c1O [Compound 3, 3,5-diprenyl-4-hydroxycinnamic acid]?
A: Cytotoxicity HT-1080 (HT-1080): 45.47; Cytotoxicity Colon L5-26 (Colon L5-26): 59.32
